Assay results from US20150126582A1, “Combination Treatment of Multiple Myeloma” (Sevion Therapeutics, Inc., priority 2012, published 2015).

Key:
[1] = test system: human myeloma tumors derived from RPMI 8226 cells; experiment: Additional study: RPMI 8226 myeloma tumors in mice, 2 cycles of treatment, 102 days; format: in vivo
Experimental: In an additional study, mice implanted with human myeloma tumors derived from RPMI 8226 cells were randomized into 4 groups and treated with control nanoparticles, or, either SNS01-T (0.375 mg/kg; i.v., twice per week), lenalidomide (50 mg/kg; i.p., 5× per week) or both. The mice received 2 cycles of treatment, 6 weeks and 5 weeks respectively, with an 11 day rest period between cycles. Mice, whose tumors were undetectable at the end of cycle 1, received no drug treatment in cycle 2 unless tumor reappeared. The mice were monitored for 2 weeks after the end of the second cycle of treatment. The total length of the study was 102 days.

[2] = test system: RPMI 8226 myeloma cells; experiment: RPMI 8226 multiple myeloma subcutaneous tumors in SCID mice, 6 weeks of dosing; conditions: for tumor growth inhibited compared to control nanoparticles: end of 6 weeks of dosing
Experimental: SCID mice are injected subcutaneously with RPMI 8226 cells. […] Groups of six SCID/CB17 mice (3-5 weeks old) are injected with 12 million RPMI 8226 myeloma cells in 200 μL PBS in their right flank and treatment is initiated when the tumours reached a minimum size of 10 mm^3.
Control mice are injected intravenously two times per week with PEI complexes containing pCpG-mcs (empty vector) and control siRNA at a dose of 0.375 mg (nucleic acid)/kg. Mice receiving SNS01-T were injected intra-venously two times per week at 0.375 mg/kg. Mice treated with lenalidomide received 5 doses per week by intra-peritoneal injection of lenalidomide (Celgene) at doses of 15 mg/kg or 50 mg/kg. Mice receiving both SNS01-T and lenalidomide were dosed 2×/week with SNS01-T by intra-venous injection at 0.375 mg/kg and 5× per week with lenalidomide by intra-peritoneal injection at either 15 mg/kg or 50 mg/kg. […] Tumor volume is measured for all the mice in each group at least twice weekly.

Nc1cccc2c1CN(C1CCC(=O)NC1=O)C2=O (racemic) [lenalidomide, 3-(4-amino-oxo-1,3-dihydro-isoindol-2-yl)-piperidine-2,6-dione]
tumor growth inhibited compared to control nanoparticles ([1]; end of the second cycle of dosing, lenalidomide 50 mg/kg i.p. 5x per week (alone, or with SNS01-T 0.375 mg/kg i.v. twice per week)): 34%
median survival ([1]; lenalidomide 50 mg/kg i.p. 5x per week, study length 102 days): 95 days
tumor growth inhibited compared to control nanoparticles ([2]; lenalidomide 15 mg/kg i.p. 5 doses/week (alone, or with SNS01-T 0.375 mg/kg i.v. 2x/week)): 51%
tumor growth inhibited compared to control nanoparticles ([2]; lenalidomide 50 mg/kg i.p. 5 doses/week (alone, or with SNS01-T 0.375 mg/kg i.v. 2x/week)): 78%
surviving animals with undetectable tumors ([2]; end of 6 weeks, lenalidomide alone, 15 mg/kg or 50 mg/kg i.p. 5x/week): No surviving animals
median survival ([2]; lenalidomide 15 mg/kg i.p. 5x/week): 53 days
